{"source": "ChEMBL document CHEMBL5247625", "about": "“Discovery and characterization of novel potent BCR-ABL degraders by conjugating allosteric inhibitor” (Eur J Med Chem, 2022)", "key": {"[1]": {"molecular_target": "T1, Protein cereblon/Tyrosine-protein kinase ABL1/Breakpoint cluster region protein (Homo sapiens, UniProt P00519+P11274+Q96SW2)", "T1 sequence (P00519 whole entry, looked up)": "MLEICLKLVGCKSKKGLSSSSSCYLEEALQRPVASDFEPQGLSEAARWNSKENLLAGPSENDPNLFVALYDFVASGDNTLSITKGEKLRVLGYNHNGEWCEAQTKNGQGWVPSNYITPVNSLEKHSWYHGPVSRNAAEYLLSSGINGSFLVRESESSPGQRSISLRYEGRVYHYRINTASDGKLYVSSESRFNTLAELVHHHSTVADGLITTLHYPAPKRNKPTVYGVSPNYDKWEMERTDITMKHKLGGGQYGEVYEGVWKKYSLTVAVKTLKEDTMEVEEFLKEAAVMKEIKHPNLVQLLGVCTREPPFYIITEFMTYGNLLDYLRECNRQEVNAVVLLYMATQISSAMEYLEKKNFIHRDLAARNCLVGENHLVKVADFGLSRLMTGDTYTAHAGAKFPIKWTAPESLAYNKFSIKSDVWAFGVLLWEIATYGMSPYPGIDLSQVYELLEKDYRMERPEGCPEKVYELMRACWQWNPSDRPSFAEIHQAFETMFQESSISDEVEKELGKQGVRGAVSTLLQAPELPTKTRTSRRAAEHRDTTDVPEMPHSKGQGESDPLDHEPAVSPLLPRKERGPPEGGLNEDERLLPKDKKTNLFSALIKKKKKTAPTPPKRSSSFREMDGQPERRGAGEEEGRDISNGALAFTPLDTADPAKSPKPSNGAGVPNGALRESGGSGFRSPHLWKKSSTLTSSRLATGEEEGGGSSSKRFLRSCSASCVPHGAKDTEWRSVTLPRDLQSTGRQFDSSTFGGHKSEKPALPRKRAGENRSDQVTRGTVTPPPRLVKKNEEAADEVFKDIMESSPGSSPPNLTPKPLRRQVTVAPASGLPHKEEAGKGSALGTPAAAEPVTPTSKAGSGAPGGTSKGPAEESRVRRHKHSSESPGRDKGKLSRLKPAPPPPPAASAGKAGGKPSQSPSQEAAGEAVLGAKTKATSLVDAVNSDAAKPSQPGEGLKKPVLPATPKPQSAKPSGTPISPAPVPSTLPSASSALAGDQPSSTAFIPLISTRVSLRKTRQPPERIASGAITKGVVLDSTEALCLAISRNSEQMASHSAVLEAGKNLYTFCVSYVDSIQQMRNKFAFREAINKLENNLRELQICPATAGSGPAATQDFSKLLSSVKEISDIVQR", "T1 sequence (P11274 whole entry, looked up)": "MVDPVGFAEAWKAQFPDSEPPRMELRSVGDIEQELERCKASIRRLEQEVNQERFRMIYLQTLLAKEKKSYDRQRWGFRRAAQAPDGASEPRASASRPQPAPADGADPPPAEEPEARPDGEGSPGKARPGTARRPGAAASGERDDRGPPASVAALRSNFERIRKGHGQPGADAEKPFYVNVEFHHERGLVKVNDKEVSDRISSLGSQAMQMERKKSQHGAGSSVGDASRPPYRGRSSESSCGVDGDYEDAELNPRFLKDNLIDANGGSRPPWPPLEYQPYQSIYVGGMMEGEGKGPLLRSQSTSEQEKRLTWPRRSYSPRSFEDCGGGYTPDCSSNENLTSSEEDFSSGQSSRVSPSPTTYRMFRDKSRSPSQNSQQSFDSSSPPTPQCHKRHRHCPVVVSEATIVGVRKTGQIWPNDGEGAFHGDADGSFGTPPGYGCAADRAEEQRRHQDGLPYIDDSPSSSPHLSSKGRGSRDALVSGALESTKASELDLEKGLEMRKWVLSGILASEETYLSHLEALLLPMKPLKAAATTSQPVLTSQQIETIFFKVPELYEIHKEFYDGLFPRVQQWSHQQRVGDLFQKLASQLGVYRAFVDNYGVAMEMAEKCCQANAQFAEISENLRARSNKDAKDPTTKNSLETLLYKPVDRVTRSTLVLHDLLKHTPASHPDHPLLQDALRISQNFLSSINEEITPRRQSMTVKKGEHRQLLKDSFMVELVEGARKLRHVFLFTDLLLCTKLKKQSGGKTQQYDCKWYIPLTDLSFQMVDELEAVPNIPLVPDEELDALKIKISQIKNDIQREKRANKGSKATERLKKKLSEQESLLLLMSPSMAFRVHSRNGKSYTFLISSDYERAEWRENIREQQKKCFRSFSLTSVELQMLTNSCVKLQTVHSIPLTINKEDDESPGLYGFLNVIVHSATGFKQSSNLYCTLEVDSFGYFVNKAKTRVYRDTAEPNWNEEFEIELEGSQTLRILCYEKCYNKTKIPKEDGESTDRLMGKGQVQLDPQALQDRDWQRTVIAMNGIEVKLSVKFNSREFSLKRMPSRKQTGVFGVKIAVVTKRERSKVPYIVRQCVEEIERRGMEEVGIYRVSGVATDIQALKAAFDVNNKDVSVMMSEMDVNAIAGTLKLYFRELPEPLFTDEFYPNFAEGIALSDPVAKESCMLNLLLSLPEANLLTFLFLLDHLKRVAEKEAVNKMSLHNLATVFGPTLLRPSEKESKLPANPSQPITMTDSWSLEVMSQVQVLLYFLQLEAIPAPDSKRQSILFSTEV", "T1 sequence (Q96SW2 whole entry, looked up)": "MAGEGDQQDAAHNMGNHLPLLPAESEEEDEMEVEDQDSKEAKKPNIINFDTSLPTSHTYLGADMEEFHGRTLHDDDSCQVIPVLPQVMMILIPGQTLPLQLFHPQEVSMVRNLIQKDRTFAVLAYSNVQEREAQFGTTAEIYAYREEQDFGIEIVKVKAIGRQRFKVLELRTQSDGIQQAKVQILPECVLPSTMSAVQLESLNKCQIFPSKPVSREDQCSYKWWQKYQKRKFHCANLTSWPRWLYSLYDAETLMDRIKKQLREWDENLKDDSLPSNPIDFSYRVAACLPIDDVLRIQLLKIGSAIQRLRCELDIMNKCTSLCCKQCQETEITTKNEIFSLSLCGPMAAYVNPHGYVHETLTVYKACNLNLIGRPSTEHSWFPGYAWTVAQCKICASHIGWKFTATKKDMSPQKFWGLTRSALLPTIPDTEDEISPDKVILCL", "assay": "Protac activity at CRBN/BCR-ABL in human K562 cells assessed as increase in BCR-ABL degradation at 5 nM by Western blotting analysis", "format": "cell-based"}, "[2]": {"assay": "Apparent permeability in human Caco-2 cells incubated for 120 mins by LC-MS/MS analysis", "format": "ADME, cell-based", "settings": "caco-2, 2 h"}, "[3]": {"molecular_target": "Tyrosine-protein kinase ABL1 (Homo sapiens, UniProt P00519)", "sequence (P00519 whole entry)": "as the sequence (P00519 whole entry, looked up) above", "assay": "Binding affinity to recombinant ABL (unknown origin)"}, "U-937": {"tested_on": "U-937", "assay": "Antiproliferative activity against human U-937 cells assessed as inhibition of cell growth incubated for 2 days by CCK8 assay", "format": "functional, cell-based", "settings": "time 2.0 day"}, "[4]": {"molecular_target": "T1, Protein cereblon/Tyrosine-protein kinase ABL1/Breakpoint cluster region protein", "assay": "Protac activity at CRBN/BCR-ABL in human K562 cells assessed as increase in BCR-ABL degradation at 0.3 to 100 nM incubated for 16 hrs by Western blotting analysis relative to control", "format": "cell-based", "settings": "dose 0.3-100 nM"}, "[5]": {"molecular_target": "Crk-like protein (Homo sapiens) (UniProt P46109)", "sequence (P46109 whole entry)": "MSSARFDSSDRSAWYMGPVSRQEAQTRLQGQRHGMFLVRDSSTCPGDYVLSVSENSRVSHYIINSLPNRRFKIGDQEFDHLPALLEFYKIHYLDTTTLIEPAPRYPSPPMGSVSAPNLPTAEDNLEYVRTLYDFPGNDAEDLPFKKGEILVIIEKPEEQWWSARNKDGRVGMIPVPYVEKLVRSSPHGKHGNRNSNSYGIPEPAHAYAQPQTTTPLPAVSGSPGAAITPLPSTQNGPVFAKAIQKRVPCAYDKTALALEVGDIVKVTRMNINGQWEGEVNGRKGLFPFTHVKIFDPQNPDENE", "assay": "Inhibition of CRKL phosphorylation at Tyr207 residue in human K562 cells at 0.3 to 100 nM incubated for 16 hrs by Western blotting analysis", "format": "cell-based", "settings": "dose 0.3-100 nM"}, "[6]": {"molecular_target": "T1, Protein cereblon/Tyrosine-protein kinase ABL1/Breakpoint cluster region protein", "assay": "Protac activity at CRBN/BCR-ABL in human K562 cells assessed as induction of BCR-ABL degradation at 100 nM pretreated with lenalidomide for 2 hrs followed by compound addition measured after 8 hrs by Western blotting analysis", "format": "cell-based", "settings": "time 10.0 hrs"}, "[7]": {"molecular_target": "T1, Protein cereblon/Tyrosine-protein kinase ABL1/Breakpoint cluster region protein", "assay": "Protac activity at CRBN/BCR-ABL in human K562 cells assessed as induction of BCR-ABL degradation at 100 nM pretreated with asciminib for 2 hrs followed by compound addition measured after 8 hrs by Western blotting analysis", "format": "cell-based", "settings": "time 10.0 hrs"}, "[8]": {"molecular_target": "T1, Protein cereblon/Tyrosine-protein kinase ABL1/Breakpoint cluster region protein", "assay": "Protac activity at CRBN/BCR-ABL in human K562 cells assessed as induction of c-ABL degradation at 100 nM pretreated with MLN4924 for 2 hrs followed by compound addition measured after 8 hrs by Western blotting analysis", "format": "cell-based", "settings": "time 10.0 hrs"}, "[9]": {"molecular_target": "Bcr/Abl fusion protein (Homo sapiens) (UniProt P00519+P11274)", "sequence (P00519 whole entry, looked up, the tested form may be a part)": "as the sequence (P00519 whole entry, looked up) above", "sequence (P11274 whole entry, looked up, the tested form may be a part)": "as the sequence (P11274 whole entry, looked up) above", "assay": "Inhibition of BCR-ABL phosphorylation at Tyr245 residue in human K562 cells at 100 nM by Western blotting analysis", "format": "cell-based", "settings": "time <= 18.0 hrs, TDE = time-dependent effect"}, "[10]": {"molecular_target": "T2, Signal transducer and activator of transcription 5A (Homo sapiens) (UniProt P42229)", "T2 sequence (whole entry)": "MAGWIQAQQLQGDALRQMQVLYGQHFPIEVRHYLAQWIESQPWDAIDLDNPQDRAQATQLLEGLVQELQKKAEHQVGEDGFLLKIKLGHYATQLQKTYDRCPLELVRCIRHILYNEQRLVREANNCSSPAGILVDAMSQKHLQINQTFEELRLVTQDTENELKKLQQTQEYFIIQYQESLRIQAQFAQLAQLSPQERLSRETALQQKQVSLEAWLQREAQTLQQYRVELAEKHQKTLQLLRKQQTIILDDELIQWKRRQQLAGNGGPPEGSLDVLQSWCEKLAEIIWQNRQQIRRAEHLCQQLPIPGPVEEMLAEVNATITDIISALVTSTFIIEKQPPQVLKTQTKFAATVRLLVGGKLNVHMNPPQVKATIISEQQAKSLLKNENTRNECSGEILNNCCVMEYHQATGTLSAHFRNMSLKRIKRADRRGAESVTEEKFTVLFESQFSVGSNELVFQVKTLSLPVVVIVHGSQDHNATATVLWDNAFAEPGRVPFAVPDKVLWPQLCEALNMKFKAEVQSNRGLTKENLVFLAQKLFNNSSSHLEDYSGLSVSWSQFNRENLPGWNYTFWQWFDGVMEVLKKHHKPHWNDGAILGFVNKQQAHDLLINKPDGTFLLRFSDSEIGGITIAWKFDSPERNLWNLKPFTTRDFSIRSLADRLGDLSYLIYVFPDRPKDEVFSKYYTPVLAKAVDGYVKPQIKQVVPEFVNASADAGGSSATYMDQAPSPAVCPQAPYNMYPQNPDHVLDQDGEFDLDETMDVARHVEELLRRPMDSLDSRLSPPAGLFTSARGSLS", "assay": "Inhibition of STAT5 phosphorylation at Tyr694 residue in human K562 cells at 100 nM by Western blotting analysis", "format": "cell-based", "settings": "time <= 18.0 hrs, TDE = time-dependent effect"}, "[11]": {"molecular_target": "T1, Protein cereblon/Tyrosine-protein kinase ABL1/Breakpoint cluster region protein", "assay": "Protac activity at CRBN/BCR-ABL in human K562 cells assessed as increase in BCR-ABL degradation at 100 nM incubated for 6 hrs by Western blotting analysis", "format": "cell-based"}, "K562 [12]": {"tested_on": "K562", "assay": "Induction of cell death in human K562 cells assessed as inhibition of cell growth at 100 nM incubated for 6 hrs followed by compound washout measured upto 96 hrs", "format": "functional, cell-based"}, "K562 [13]": {"tested_on": "K562", "assay": "Down regulation of IKZF3 expression in human K562 cells at 100 nM measured after 16 hrs by LC-MS analysis", "format": "functional, cell-based"}, "K562 [14]": {"tested_on": "K562", "assay": "Down regulation of ZFP91 expression in human K562 cells at 100 nM measured after 16 hrs by LC-MS analysis", "format": "functional, cell-based"}, "[15]": {"tested_on": "Protein cereblon/Tyrosine-protein kinase ABL1/Breakpoint cluster region protein (Mus musculus), P00520+Q6PAJ1+Q8C7D2 [T315I]", "assay": "Protac activity at CRBN/BCR-ABL T315I mutant in mouse 32D cells assessed as increase in BCR-ABL degradation at 1 to 1000 nM by Western blotting analysis", "format": "cell-based", "settings": "dose 1-1000 nM"}, "[16]": {"tested_on": "Protein cereblon/Tyrosine-protein kinase ABL1/Breakpoint cluster region protein (Mus musculus), P00520+Q6PAJ1+Q8C7D2 [E255V]", "assay": "Protac activity at CRBN/BCR-ABL E255V mutant in mouse 32D cells assessed as increase in BCR-ABL degradation at 1 to 1000 nM by Western blotting analysis", "format": "cell-based", "settings": "dose 1-1000 nM"}, "[17]": {"tested_on": "Protein cereblon/Tyrosine-protein kinase ABL1/Breakpoint cluster region protein (Mus musculus), P00519+P11274+Q8C7D2 [K294E]", "assay": "Protac activity at CRBN/asciminib resistance BCR-ABL K294E mutant in mouse 32D cells assessed as increase in BCR-ABL degradation at 1 to 1000 nM by Western blotting analysis", "format": "cell-based", "settings": "dose 1-1000 nM"}, "[18]": {"tested_on": "Protein cereblon/Tyrosine-protein kinase ABL1/Breakpoint cluster region protein (Mus musculus), P00519+P11274+Q8C7D2 [T315M]", "assay": "Protac activity at CRBN/asciminib resistance BCR-ABL T315M mutant in mouse 32D cells assessed as increase in BCR-ABL degradation at 1 to 1000 nM by Western blotting analysis", "format": "cell-based", "settings": "dose 1-1000 nM"}, "[19]": {"tested_on": "Protein cereblon/Tyrosine-protein kinase ABL1/Breakpoint cluster region protein (Mus musculus), P00519+P11274+Q8C7D2 [F359V]", "assay": "Protac activity at CRBN/asciminib resistance BCR-ABL F359V mutant in mouse 32D cells assessed as increase in BCR-ABL degradation at 1 to 1000 nM by Western blotting analysis", "format": "cell-based", "settings": "dose 1-1000 nM"}, "[20]": {"tested_on": "Protein cereblon/Tyrosine-protein kinase ABL1/Breakpoint cluster region protein (Mus musculus), P00519+P11274+Q8C7D2 [G671R]", "assay": "Protac activity at CRBN/asciminib resistance BCR-ABL G671R mutant in mouse 32D cells assessed as increase in BCR-ABL degradation at 1 to 1000 nM by Western blotting analysis", "format": "cell-based", "settings": "dose 1-1000 nM"}}, "note": "Calls of active or inactive are those of the source. No cut-off for these calls is given here."}
{"smiles": "O=C1CCC(N2Cc3c(SCCCCCCN4CCN(C5CCN(c6ncc(C(=O)Nc7ccc(OC(F)(F)Cl)cc7)cc6-c6ccn[nH]6)CC5)CC4)cccc3C2=O)C(=O)N1", "note": "(stereo unspecified)", "values": [{"measurement": "Activity", "setting": "[1]", "value": 81.8, "unit": "%"}, {"measurement": "Papp", "setting": "[2]", "value": "Impermeable"}, {"measurement": "Kd", "setting": "[3]", "value": 4.74, "unit": "µM"}, {"measurement": "Activity", "setting": "U-937", "value": "inactive"}, {"measurement": "Emax", "setting": "[4]", "value": 91.2, "unit": "%"}, {"measurement": "inhibition", "setting": "[5]", "value": "Active"}, {"measurement": "Activity", "setting": "[6]", "value": "inactive"}, {"measurement": "Activity", "setting": "[7]", "value": "inactive"}, {"measurement": "Activity", "setting": "[8]", "value": "inactive"}, {"measurement": "inhibition", "setting": "[9]", "value": "Tde"}, {"measurement": "inhibition", "setting": "[10]", "value": "Tde"}, {"measurement": "Activity", "setting": "[11]", "value": "Active"}, {"measurement": "Activity", "setting": "K562 [12]", "value": "Active"}, {"measurement": "Activity", "setting": "K562 [13]", "value": "Active"}, {"measurement": "Activity", "setting": "K562 [14]", "value": "Active"}, {"measurement": "Activity", "setting": "[15]", "value": "Active"}, {"measurement": "Activity", "setting": "[16]", "value": "Active"}, {"measurement": "Activity", "setting": "[17]", "value": "Active"}, {"measurement": "Activity", "setting": "[18]", "value": "Active"}, {"measurement": "Activity", "setting": "[19]", "value": "Active"}, {"measurement": "Activity", "setting": "[20]", "value": "Active"}]}
